The values that follow come from patent US10208011B2, “Benzothiophene estrogen receptor modulators” (G1 Therapeutics, Inc., priority 2017, dated 2019).

The target in assay [1] is estrogen receptor α in MCF7 cells (Homo sapiens (Human), UniProt P03372). In words: Estrogen Receptor (ER) Degradation Assay (In-Cell Western). In kind it is cell-based. As to conditions: for IC50: 24 hours, In-Cell Western; for % Estrogen Receptor Remaining: vehicle set to 100%. As for the experimental part:
A screening strategy was implemented utilizing an In-Cell Western assay to measure their ability to degrade the estrogen receptor in vitro. MCF7 cells, which are estrogen receptor positive, were plated at a cell density of […] into black walled clear bottom 96-well plates. Cells were incubated in phenol red free Dulbecco's Modified Eagle Media (DMEM) supplemented with 8% charcoal-stripped fetal bovine calf serum for 24 hours in a humidified 37° C. incubator. Concentrated stock compounds were diluted to 10× in complete media. Compounds were added to the plated cells in a dose-dependent manner ranging from 1E-12 to 1E-05 M and incubated for an additional 24 hours at 37° C. Culture medium was removed from the culture plates by gentle inversion. Cells were fixed in 4% paraformaldehyde in 1× phosphate buffered saline-calcium magnesium free (PBS-CMF) for 15 minutes at room temperature, washed 3 times for 5 minutes each in 1×PBS-CMF. Cells were permeabilized in immunofluorescence (IF) blocking buffer (Cell Signaling #12411) containing 0.3% Triton X100. Cells were washed 3 times for 5 minutes each in 1×PBS-CMF and incubated in estrogen receptor α (D6R2W) rabbit primary antibody (Cell Signaling #13258) diluted 1:300 in IF antibody dilution buffer (Cell Signaling #12378). Cells were washed 3 times for 5 minutes each in 1×PBS-CMF and stained with goat anti-rabbit (Biotium #CF770) secondary antibody diluted 1:2000 in IF antibody dilution buffer and normalizing stain CellTag 700 diluted 1:500 (Licor #926-41090). ER protein expression was assessed by the Licor Odyssey CLx imaging system using Image Studio v5.2. Data is processed utilizing GraphPad Prism 7 by subtracting background from the vehicle and setting the vehicle to 100% ER activity, followed by comparing treated samples to vehicle. This procedure was used to produce the graph in FIG. 2, FIG. 3, FIG. 4, FIG. 5, FIG. 6, FIG. 7, and FIG. 8.
(§1) In the below table for the Estrogen Receptor Degradation Assay and the Human ERα Reporter Assay: […]

The target of assay [2] is human estrogen receptor (ERα) (Homo sapiens (Human), UniProt P03372). Nature of the assay: Human ERα Reporter Assay (Indigo Biosciences). As to conditions: antagonist mode, 17β-estradiol 8E-10 M, 24 hours. Format: cell-based. As for the experimental part:
All reagents used in this assay was supplied in the Human ERα Reporter Assay by Indigo Biosciences # IB00401. In an effort to screen selective estrogen receptor degraders (SERDs), the Human ERα Reporter Assay, supplied by Indigo Biosciences, was utilized to quantify antagonist functional activity against the human estrogen receptor. Reporter cells were thawed at 37° C. and added to pre-warmed to 37° C. cell recovery medium (CRM). Stock concentration of 17β-estradiol was serially diluted in CRM. Diluted 17β-estradiol was added to CRM containing reporter cells resulting in a working concentration of 1.6 nM (2×). Cells plus 17β-estradiol were dispensed in a kit-supplied white walled 96-well plate. Concentrated stocks of test compounds were diluted to 2× working concentrations in cell screening medium (CSM). 2× concentrated compounds were added to the plated cells in a dose-dependent manner resulting in a final concentration range of 1E-11 to 1E-5 M and a final 17β-estradiol concentration of 8E-10 M. Assay plates were incubated for 24 hours in a humidified 37° C. incubator. Culture medium was removed from the assay plates by inversion. Detection substrate and buffer was warmed to room temperature, mixed thoroughly, and immediately added to the assay plates. Assay plates were incubated for 15 minutes at room temperature protected from light. Luminescence was measured in a Synergy HTX luminescence plate reader. Data is processed utilizing GraphPad Prism 7 by graphing the relative light units measured at each compound concentration. This procedure was used to produce the graph in FIG. 1, FIG. 9, FIG. 10, FIG. 11, FIG. 12, FIG. 13, and FIG. 14.
as §1
In general terms: Reporter assays use an easily measured gene product as a stand-in for the process of interest.

Chain of human estrogen receptor (ERα) (P03372 whole entry): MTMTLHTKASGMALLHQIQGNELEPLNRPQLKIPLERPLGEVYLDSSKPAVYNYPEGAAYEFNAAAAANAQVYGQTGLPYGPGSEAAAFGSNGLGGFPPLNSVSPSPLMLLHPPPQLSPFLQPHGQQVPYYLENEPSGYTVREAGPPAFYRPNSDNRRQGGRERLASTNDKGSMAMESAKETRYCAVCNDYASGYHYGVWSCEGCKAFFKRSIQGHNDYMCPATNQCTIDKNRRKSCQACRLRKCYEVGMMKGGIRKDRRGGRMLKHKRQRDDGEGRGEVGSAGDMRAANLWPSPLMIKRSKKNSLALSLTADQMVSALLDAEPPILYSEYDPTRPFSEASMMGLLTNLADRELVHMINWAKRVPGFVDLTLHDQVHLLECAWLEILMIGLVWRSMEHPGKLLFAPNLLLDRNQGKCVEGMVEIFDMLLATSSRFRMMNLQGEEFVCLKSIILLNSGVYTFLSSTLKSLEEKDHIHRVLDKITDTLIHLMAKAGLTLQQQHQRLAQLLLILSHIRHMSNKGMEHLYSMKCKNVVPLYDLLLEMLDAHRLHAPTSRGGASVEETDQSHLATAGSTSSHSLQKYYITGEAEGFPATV
Chain of estrogen receptor α in MCF7 cells (P03372 whole entry): as above

A word on the IC50: it is the concentration that inhibits the measured activity by half. Regarding `Cc1cc(F)cc(C)c1C(=O)c1sc2cc(O)ccc2c1-c1ccc(CCN2CC(CF)C2)cc1` [Compound 119, (4-fluoro-2,6-dimethylphenyl)(3-(4-(2-(3-(fluoromethyl)azetidin-1-yl)ethyl)phenyl)-6-hydroxybenzo[b]thiophen-2-yl)methanone], in assay [1], the IC50 is below 1000 nM and the “% Estrogen Receptor Remaining” value is given as “*** (*** denotes 41-70% Estrogen Receptor remaining)”. Besides, the IC50 in assay [2] is below 1000 nM.

For `CCC(C)NCCc1ccc(Oc2c(C(=O)c3c(C)cc(F)cc3C)sc3cc(O)ccc23)cc1` (stereo not shown) [Compound 111, (3-(4-(2-(sec-butylamino)ethyl)phenoxy)-6-hydroxybenzo[b]thiophen-2-yl)(4-fluoro-2,6-dimethylphenyl)methanone], in assay [1], the IC50 was below 1000 nM and the “% Estrogen Receptor Remaining” value is listed as “**** (**** denotes 0-40% Estrogen Receptor remaining)”. Moreover, the IC50 in assay [2] is below 1000 nM.

As to `Cc1cc(F)cc(C)c1C(=O)c1sc2cc(O)ccc2c1-c1ccc(OCCN2CCC(CF)CC2)cc1` [Compound 124, (4-fluoro-2,6-dimethylphenyl)(3-(4-(2-(4-(fluoromethyl)piperidin-1-yl)ethoxy)phenyl)-6-hydroxybenzo[b]thiophen-2-yl)methanone], the IC50 was below 1000 nM in assay [1] and below 50000 nM in assay [2]. For the same compound, the “% Estrogen Receptor Remaining” value in assay [1] is given as “*** (*** denotes 41-70% Estrogen Receptor remaining)”.

As to `CCN(CC)CCc1ccc(Oc2c(C(=O)c3c(C)cc(F)cc3C)sc3cc(O)ccc23)cc1` [Compound 112, (3-(4-(2-(diethylamino)ethyl)phenoxy)-6-hydroxybenzo[b]thiophen-2-yl)(4-fluoro-2,6-dimethylphenyl)methanone], the IC50 in assay [1] and in assay [2] was below 1000 nM each time. The “% Estrogen Receptor Remaining” value in assay [1] is given as “*** (*** denotes 41-70% Estrogen Receptor remaining)”.

As to `CCC(CC)NCCc1ccc(Oc2c(C(=O)c3c(C)cc(F)cc3C)sc3cc(O)ccc23)cc1` [Compound 109, (4-fluoro-2,6-dimethylphenyl)(6-hydroxy-3-(4-(2-(pentan-3-ylamino)ethyl)phenoxy)benzo[b]thiophen-2-yl)methanone], in assay [1], the IC50 is below 1000 nM and the “% Estrogen Receptor Remaining” value is given as “*** (*** denotes 41-70% Estrogen Receptor remaining)”. Also, the IC50 in assay [2] is below 1000 nM.

On to `Cc1cc(F)cc(C)c1C(=O)c1sc2cc(O)ccc2c1Oc1ccc(OCCN2CCCC2)cc1` [Compound 108, (4-fluoro-2,6-dimethylphenyl)(6-hydroxy-3-(4-(2-(pyrrolidin-1-yl)ethoxy)phenoxy)benzo[b]thiophen-2-yl)methanone], for which, in assay [1], the “% Estrogen Receptor Remaining” value was “*** (*** denotes 41-70% Estrogen Receptor remaining)”.

In the case of `Cc1cc(F)cc(C)c1C(=O)c1sc2cc(O)ccc2c1Oc1ccc(CCNC2CCCCC2)cc1` [Compound 110, (3-(4-(2-(cyclohexylamino)ethyl)phenoxy)-6-hydroxybenzo[b]thiophen-2-yl)(4-fluoro-2,6-dimethylphenyl)methanone], in assay [1], the IC50 is below 1000 nM and the “% Estrogen Receptor Remaining” value is reported as “*** (*** denotes 41-70% Estrogen Receptor remaining)”. Further, the IC50 in assay [2] was below 1000 nM.

For `CCNCCc1ccc(CN(CC)c2cc(OC)ccc2[C@@H]2CCc3cc(O)ccc3C2)cc1.Cl.Cl` (stereo in doubt) [RAD- 1901, reference compound], the “% Estrogen Receptor Remaining” value in assay [1] was “**** (**** denotes 0-40% Estrogen Receptor remaining)”.

In the case of `Cc1cc(F)cc(C)c1C(=O)c1sc2cc(O)ccc2c1Oc1ccc(N2CCCCCC2)cc1` [Compound 102, (3-(4-(azepan-1-yl)phenoxy)-6-hydroxybenzo[b]thiophen-2-yl)(4-fluoro-2,6-dimethylphenyl)methanone], in assay [1], the IC50 was below 1000 nM and the “% Estrogen Receptor Remaining” value is listed as “*** (*** denotes 41-70% Estrogen Receptor remaining)”. Besides, the IC50 in assay [2] was below 1000 nM.

As for `CNCCCc1ccc(Oc2c(C(=O)c3c(C)cc(F)cc3C)sc3cc(O)ccc23)cc1` [Compound 116, (4-fluoro-2,6-dimethylphenyl)(6-hydroxy-3-(4-(3-(methylamino)propyl)phenoxy)benzo[b]thiophen-2-yl)methanone], the IC50 in assay [1] and in assay [2] was below 1000 nM in each case. Further, the “% Estrogen Receptor Remaining” value in assay [1] is listed as “*** (*** denotes 41-70% Estrogen Receptor remaining)”.

As for `CNCc1ccc(Oc2c(C(=O)c3c(C)cc(F)cc3C)sc3cc(O)ccc23)cc1` [Compound 113, (4-fluoro-2,6-dimethylphenyl)(6-hydroxy-3-(4-((methylamino)methyl)phenoxy)benzo[b]thiophen-2-yl)methanone], in assay [1], the IC50 is below 1000 nM and the “% Estrogen Receptor Remaining” value is recorded as “*** (*** denotes 41-70% Estrogen Receptor remaining)”. Moreover, the IC50 in assay [2] is below 1000 nM.

Turning to `Cc1cc(F)cc(C)c1C(=O)c1sc2cc(O)ccc2c1-c1ccc(OCCN2CCC(CF)C2)cc1` (stereo not shown) [Compound 123, (4-fluoro-2,6-dimethylphenyl)(3-(4-(2-(3-(fluoromethyl)pyrrolidin-1-yl)ethoxy)phenyl)-6-hydroxybenzo[b]thiophen-2-yl)methanone], in assay [1], the IC50 is below 1000 nM and the “% Estrogen Receptor Remaining” value is given as “*** (*** denotes 41-70% Estrogen Receptor remaining)”. For the same compound, the IC50 in assay [2] was below 50000 nM.

As to `Cc1cc(F)cc(C)c1C(=O)c1sc2cc(O)ccc2c1-c1ccc(OCCN2CC(CF)C2)cc1` [Compound 120, (4-f1uoro-2,6-dimethylphenyl)(3-(4-(2-(3-(fluoromethyl)azetidin-1-yl)ethoxy)phenyl)-6-hydroxybenzo[b]thiophen-2-yl)methanone], in assay [1], the half-inhibitory concentration (IC50) is below 1000 nM and the “% Estrogen Receptor Remaining” value is “*** (*** denotes 41-70% Estrogen Receptor remaining)”. In addition, the IC50 in assay [2] is below 50000 nM.

For the compound `Cc1cc(F)cc(C)c1C(=O)c1sc2cc(O)ccc2c1Oc1ccc(N2CCCCC2)cc1` [Compound 101, (4-fluoro-2,6-dimethylphenyl)(6-hydroxy-3-(4-(piperidin-1-yl)phenoxy)benzo[b]thiophen-2-yl)methanone], the IC50 in assay [1] and in assay [2] was below 1000 nM in each case. For the same compound, in assay [1], the “% Estrogen Receptor Remaining” value was “*** (*** denotes 41-70% Estrogen Receptor remaining)”.

For `Cc1cc(F)cc(C)c1C(=O)c1sc2cc(O)ccc2c1Oc1ccc(CN)cc1` [Compound 115, (3-(4-(aminomethyl)phenoxy)-6-hydroxybenzo[b]thiophen-2-yl)(4-fluoro-2,6-dimethylphenyl)methanone], the IC50 in assay [1] and in assay [2] was below 1000 nM in each case. Further, the “% Estrogen Receptor Remaining” value in assay [1] is recorded as “*** (*** denotes 41-70% Estrogen Receptor remaining)”.

For the compound `Cc1cc(F)cc(C)c1C(=O)c1sc2cc(O)ccc2c1Oc1ccc(CCNC(C)C)cc1` [Compound 105, (4-fluoro-2,6-dimethylphenyl)(6-hydroxy-3-(4-(2-(isopropylamino)ethyl)phenoxy)benzo[b]thiophen-2-yl)methanone], in assay [1], the IC50 was below 50000 nM and the “% Estrogen Receptor Remaining” value is given as “**** (**** denotes 0-40% Estrogen Receptor remaining)”. For the same compound, in assay [2], the IC50 was below 1000 nM.

As for `Cc1cc(F)cc(C)c1C(=O)c1sc2cc(O)ccc2c1Oc1ccc(OCCN2CCCCCC2)cc1` [Compound 107, (3-(4-(2-(azepan-1-yl)ethoxy)phenoxy)-6-hydroxybenzo[b]thiophen-2-yl)(4-fluoro-2,6-dimethylphenyl)methanone], the “% Estrogen Receptor Remaining” value in assay [1] is on record as “*** (*** denotes 41-70% Estrogen Receptor remaining)”.

With `Cc1cc(F)cc(C)c1C(=O)c1sc2cc(O)ccc2c1Oc1ccc(OCCN2CCCCC2)cc1` [Compound 106, (4-fluoro-2,6-dimethylphenyl)(6-hydroxy-3-(4-(2-(piperidin-1-yl)ethoxy)phenoxy)benzo[b]thiophen-2-yl)methanone], in assay [1], the “% Estrogen Receptor Remaining” value is given as “*** (*** denotes 41-70% Estrogen Receptor remaining)”.
